{"source": "paper PMC2649998", "about": "(Journal of pharmaceutical sciences, 2009)", "key": {"dogs": {"system": "dogs", "settings": "in dogs; cited from earlier work"}, "[1]": {"type": "physicochemical", "settings": "0.3 mM PEO-b-PDLLA, 10% w/w drug, dialysis in ddH2O, 37 °C, pH 7.4"}, "[2]": {"system": "MCF-7 human breast cancer cells", "experiment": "in vitro cytotoxicity, resazurin dye, 72 h", "type": "cell-based", "settings": "MCF7, 72 h, read-out: MCF-7 IC50"}, "PC-3": {"system": "PC-3", "settings": "read-out: IC50 for PC-3; reported by the National Cancer Institute; cited from earlier work"}, "[3]": {"type": "physicochemical"}, "MCF-7": {"system": "MCF-7", "settings": "read-out: IC50 for MCF-7; reported by the National Cancer Institute; cited from earlier work"}, "[4]": {"settings": "cited from earlier work"}, "[5]": {"system": "PC-3 human prostate cells", "experiment": "in vitro cytotoxicity, resazurin dye, 72 h", "type": "cell-based", "settings": "Prostate cell, read-out: PC-3 IC50"}}, "data": [{"compound": "C=CCNC1=C2C[C@@H](C)C[C@H](OC)[C@H](O)[C@@H](C)/C=C(\\C)[C@H](OC(N)=O)[C@@H](OC)/C=C\\C=C(/C)C(=O)NC(=CC1=O)C2=O", "note": "[17-AAG, 17-allylamino-17-demethoxygeldanamycin]", "values": [{"measurement": "maximum tolerated dose", "setting": "dogs", "result": "100–200 mg/m^2/day"}, {"measurement": "release half-life", "setting": "[1]", "result": "similar"}, {"measurement": "IC50", "setting": "[2]", "result": "0.022 ± 0.014", "unit": "µM"}, {"measurement": "IC50", "setting": "PC-3", "result": 0.0501, "unit": "µM"}, {"measurement": "17-AAG : PEO-b-PDLLA", "setting": "[3]; 0.3 mM PEO-b-PDLLA micelle solution", "result": "0.47 ± 0.068 mol:mol"}, {"measurement": "Loading efficiency", "setting": "[3]; 17-AAG loaded 1.4% divided by loading attempted 10% w/w", "result": "14 ± 2.0", "unit": "%"}, {"measurement": "increase in solubility over 17-AAG alone", "setting": "[3]; in PEO-b-PDLLA (12:6 kDa) micelles versus ca. 10 μg/mL", "result": "ca. 150 fold"}, {"measurement": "17-AAG loaded", "setting": "[3]; weight 17-AAG solubilized versus total weight of carrier (17-AAG and PEO-b-PDLLA), 0.3 mM PEO-b-PDLLA", "result": "0.014 ± 0.0020", "unit": "mg/mg"}, {"measurement": "IC50", "setting": "MCF-7", "result": 0.0126, "unit": "µM"}, {"measurement": "aqueous solubility", "setting": "[4]", "result": "ca. 0.01 mg/mL"}, {"measurement": "IC50", "setting": "[5]", "result": "0.074 ± 0.014", "unit": "µM"}]}, {"compound": "CO[C@H]1/C=C\\C=C(/C)C(=O)NC2=CC(=O)C(NCCN(C)C)=C(C[C@@H](C)C[C@H](OC)[C@H](O)[C@@H](C)/C=C(\\C)[C@@H]1OC(N)=O)C2=O", "note": "[17-DMAG, 17-dimethylaminoethylamino-17-demethoxygeldanamycin]", "values": [{"measurement": "maximum tolerated dose", "setting": "dogs", "result": 8, "unit": "mg/m^2/day"}]}]}
